Work on `CC=NN(C(=O)c1ccccc1)c1ccccc1` yielded a logP of 2.76. For `CN(NC(=S)Nc1ccccc1)C(=O)c1ccc([N+](=O)[O-])cc1`, the logP was 2.68. In the case of `CN(N)C(=O)c1ccccc1`, the logP was 0.7. With `COc1ccc(C(=O)N(N)c2ccccc2)cc1` the logP was 2.83. With `CN(N)C(=O)c1ccc([N+](=O)[O-])cc1` the logP was 0.75. Molecule `COc1ccc(C(=O)N(C)NC(=S)Nc2ccccc2)cc1` has a logP of 2.56. `Cc1ccc(C(=O)N(NC(=S)Nc2ccccc2)c2ccccc2)cc1` gave a logP of 4.08. In the case of `Cc1ccc(C(=O)N(N)c2ccccc2)cc1`, the logP was 3. `NN(C(=O)c1ccccc1)c1ccccc1` gave a logP of 2.3. With `COc1ccc(C(=O)N(NC(=S)Nc2ccccc2)c2ccccc2)cc1` the logP was 3.94. In the case of `CC=NN(C(=O)c1ccc([N+](=O)[O-])cc1)c1ccccc1`, the logP was 3.08. With `COc1ccc(C(=O)N(C)N)cc1` the logP was 1. Molecule `CC=NN(C(=O)c1ccc(C)cc1)c1ccccc1` has a logP of 3.6. `Cc1ccc(C(=O)N(C)NC(=S)Nc2ccccc2)cc1` gave a logP of 3.01. `O=C(c1ccc([N+](=O)[O-])cc1)N(NC(=S)Nc1ccccc1)c1ccccc1` showed a logP of 3.87. Molecule `NN(C(=O)c1ccc([N+](=O)[O-])cc1)c1ccccc1` has a logP of 2.48. For `Cc1ccc(C(=O)N(C)N)cc1`, the logP was 1.36. `CN(NC(=S)Nc1ccccc1)C(=O)c1ccccc1` gave a logP of 2.47. `CC=NN(C(=O)c1ccc(OC)cc1)c1ccccc1` gave a logP of 3.18. Work on `O=C(c1ccccc1)N(NC(=S)Nc1ccccc1)c1ccccc1` yielded a logP of 3.73.
